Test results from patent US11505575B2, “Cyclic polypeptides for PCSK9 inhibition” (Merck Sharp & Dohme LLC, priority 2018, dated 2022).
*1 amine or outer side, *2 acyl side, *3 side chain or, on linkers, in order; H or OH if unused. Where a SMILES comes first, the peptide text is derived from it. Bridges are numbered along the chain shown (N, C = ends). [ ]: non-standard residue; d: D form. The star is where a group is joined. ξ: configuration not given here. αMeNva(5-ylidene) = C[C@@](CCC=[*:3])(N[*:1])C(=O)[*:2]; Phe(3-CF3) = N[C@@H](Cc1cccc(C(F)(F)F)c1)C(=O)O; Trp(5-F) = N[C@@H](Cc1c[nH]c2ccc(F)cc12)C(=O)O; Trp(7-aza) = N[C@@H](Cc1c[nH]c2ncccc12)C(=O)O; X1 = C[C@@](CCCCC=[*:3])(N[*:1])C(=O)[*:2]; pY = N[C@@H](Cc1ccc(OP(=O)(O)O)cc1)C(=O)O; pT = C[C@@H](OP(=O)(O)O)[C@H](N)C(=O)O; mXylylene = c1cc(C[*:1])cc(C[*:2])c1; Aad = N[C@@H](CCCC(=O)O)C(=O)O; aThr = C[C@H](O)[C@H](N)C(=O)O; Chg = N[C@H](C(=O)O)C1CCCCC1; Tle = CC(C)(C)[C@H](N)C(=O)O; αMeV = CC(C)[C@](C)(N)C(=O)O; αMeS = C[C@](N)(CO)C(=O)O; Api = NC1(C(=O)O)CCNCC1; Nva = CCC[C@H](N)C(=O)O; ξαMeS = CC(N)(CO)C(=O)O; Aib = CC(C)(N)C(=O)O; Mpa = O=C(O)CCS; X5 = COCC*

What was measured:
Assay type in all cases: binding
[1] = target: human PCSK9 / human LDLR EGFa domain interaction (Homo sapiens, UniProt Q8NBP7); assay: TR-FRET assay of inhibition of the PCSK9-LDLR protein-protein interaction; conditions: 20 nM biotinylated human PCSK9 + 20 nM his-tagged human LDLR EGFa domain, 2 hours room temperature
Summary of the method: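 Biotinylated human PCSK9 (20 nM) and His-tagged human LDLR EGFa domain (20 nM) incubated with Ulight-streptavidin and Eu-anti-His (5 nM each), 2 h at room temperature, in HEPES pH buffer with 5 mM CaCl2. TR-FRET read-out; IC50 from 4-parameter fit of dose-response.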

[2] = target: T1, PCSK9 (Homo sapiens, UniProt Q8NBP7); assay: PCSK9 Alexa FRET Standard assay (displacement of AlexaFluor647-tagged cyclic peptide Reagent A); conditions: 0.5 nM PCSK9, 20 nM AF cyclic peptide Reagent A
T1 construct: biotin (biotinylated)
Description: A solution containing 1 nM biotinylated PCSK9+2.5 nM Lance Streptavidin Europium (Strep-Eu) was made in 50 mM HEPES pH 7.4, 0.15 M NaCl, 5 mM CaCl2, 0.01% BSA, and 0.01% Surfactant P20. A separate solution containing 40 nM of the AlexaFluor tagged cyclic peptide was made in the same buffer system. An Echo was used to transfer 0.750 ul of compound to an assay plate followed by the addition of 15 ul of PCSK9+Stept-Eu and 15 ul of AF peptide. The final assay volume was 30.750 ul containing 0.5 nM PCSK9, 1.25 nM Strep-Eu, and 20 nM AF cyclic peptide. The reaction was incubated at room temperature for at least two hours prior to fluorescence measurements using an Envision Multilabel Reader. IC50 values were determined by fitting data to a sigmoidal dose-response curve using nonlinear regression. Ki was then calculated from the IC50 and the KD of AF cyclic peptide. Counts (B-counts) of the europium-labeled PCSK9 were followed to observe if compounds were […]. A fall off of the B-counts likely indicated a false positive of inhibition. Data from this procedure was reported as “A=‘numerical value’ (nanomolar)”

[3] = target: T1, PCSK9; assay: PCSK9 Alexa FRET Plus assay (displacement of AlexaFluor647-tagged cyclic peptide Reagent B); conditions: 0.5 nM PCSK9, 960 nM AF cyclic peptide Reagent B
Description: A solution containing 1 nM biotinylated PCSK9+2.5 nM Lance Streptavidin Europium (Strep-Eu) was made in 50 mM HEPES pH 7.4, 0.15 M NaCl, 5 mM CaCl2, 0.01% BSA, and 0.01% Surfactant P20. A separate solution containing 1920 nM of the AlexaFluor tagged cyclic peptide was made in the same buffer system. An Echo was used to transfer 0.075 ul of compound plus 0.675 ul of DMSO to each well of an assay plate followed by the addition of 15 ul of PCSK9+Stept-Eu and 15 ul of AF peptide. The final assay volume was 30.750 ul containing 0.5 nM PCSK9, 1.25 nM Strep-Eu, and 960 nM AF cyclic peptide. The reaction was incubated at room temperature for at least two hours prior to fluorescence measurements using an Envision Multilabel Reader. IC50 values were determined by fitting data to a sigmoidal dose-response curve using nonlinear regression. Ki was then calculated from the IC50 and the KD of AF cyclic peptide. Counts (B-counts) of the europium-labeled PCSK9 were followed to observe if compounds were adversely affecting PCSK9. A fall off of the B-counts likely indicated a false positive of inhibition. Data from this procedure was reported as “P=‘numerical value’ (nanomolar)”

T1 sequence (Q8NBP7 153-692): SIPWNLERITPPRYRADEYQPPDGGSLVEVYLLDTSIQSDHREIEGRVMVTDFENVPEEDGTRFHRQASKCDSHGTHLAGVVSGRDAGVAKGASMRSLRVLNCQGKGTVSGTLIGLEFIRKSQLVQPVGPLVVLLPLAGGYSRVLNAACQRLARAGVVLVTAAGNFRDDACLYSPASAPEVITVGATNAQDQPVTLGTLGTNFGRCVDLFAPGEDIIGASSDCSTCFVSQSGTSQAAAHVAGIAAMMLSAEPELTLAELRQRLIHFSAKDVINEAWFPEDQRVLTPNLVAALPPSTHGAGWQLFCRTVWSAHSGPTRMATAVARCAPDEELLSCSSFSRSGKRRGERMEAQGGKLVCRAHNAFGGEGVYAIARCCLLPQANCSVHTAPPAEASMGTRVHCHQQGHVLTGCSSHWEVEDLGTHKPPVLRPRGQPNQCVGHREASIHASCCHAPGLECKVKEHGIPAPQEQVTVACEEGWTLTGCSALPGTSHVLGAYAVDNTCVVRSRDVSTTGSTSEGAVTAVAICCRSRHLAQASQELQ
Chain of human PCSK9 / human LDLR EGFa domain interaction (Q8NBP7 153-692): as above
Chain of human PCSK9 / human LDLR EGFa domain interaction (Q8NBP7 31-152 partner limits assumed): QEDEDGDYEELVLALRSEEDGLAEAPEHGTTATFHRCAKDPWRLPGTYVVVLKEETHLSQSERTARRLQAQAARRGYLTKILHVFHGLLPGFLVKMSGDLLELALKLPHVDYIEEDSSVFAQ

SMILES | IC50 [1] | IC50 [2] | IC50 [3]
CC1O[C@@H](C)[C@@H]2NC(=O)[C@@]1(C)NC(=O)[C@H](Cc1ccc(OP(=O)(O)O)cc1)NC(=O)[C@H](C)NC(=O)C(C)(C)NC(=O)[C@H](Cc1c[nH]c3ncccc13)NC(=O)[C@H]([C@@H](C)O)NC(=O)[C@@H]1CCCN1C(=O)[C@H](Cc1ccc(O)cc1)NC(=O)[C@H](C(C)(C)C)NC(=O)CCSCc1cccc(c1)CSC[C@@H](C(N)=O)NC2=O (stereo partly drawn) [Compound 014] | 0.001 to 0.1 µM | 0.001 to 0.1 µM | 0.001 to 0.1 µM
COCCOCC1(C)NC(=O)[C@H](Cc2c[nH]c3ncccc23)NC(=O)[C@H]([C@@H](C)O)NC(=O)[C@@H]2CCCN2C(=O)[C@H](Cc2ccc(O)cc2)NC(=O)[C@H](C(C)(C)C)NC(=O)[C@@H](NC(C)=O)CSCc2cccc(c2)CSC[C@H](C(N)=O)NC(=O)[C@H]([C@@H](C)O)NC(=O)[C@](C)(C(C)C)NC(=O)[C@H](Cc2ccc(O)cc2)NC(=O)[C@H](C)NC1=O (stereo partly drawn) [Compound 036] (Ac-C[Tle]YPT[Trp(7-aza)][ξαMeS](X5)AY[αMeV]T[dC]-NH2; linker 1-12 via mXylylene) |  | 0.001 to 0.1 µM | 0.001 to 0.1 µM
CC(=O)N[C@H]1CSCc2cccc(c2)CSC[C@H](C(N)=O)NC(=O)[C@H]([C@H](C)O)NC(=O)[C@](C)(C(C)C)NC(=O)[C@H](Cc2ccc(OP(=O)(O)O)cc2)NC(=O)[C@H](C)NC(=O)C(C)(C)NC(=O)[C@H](Cc2c[nH]c3ncccc23)NC(=O)[C@H]([C@@H](C)O)NC(=O)[C@@H]2CCCN2C(=O)[C@H](Cc2ccc(O)cc2)NC(=O)[C@H](C(C)(C)C)NC1=O [Compound 039] (Ac-C[Tle]YPT[Trp(7-aza)][Aib]A[pY][αMeV][aThr][dC]-NH2; linker 1-12 via mXylylene) |  | 0.1 to 1 µM | 0.001 to 0.1 µM
CC(=O)N[C@H]1CSCc2cccc(c2)CSC[C@H](C(N)=O)NC(=O)[C@H]([C@H](C)O)NC(=O)[C@](C)(C(C)C)NC(=O)[C@H](Cc2ccc(O)cc2)NC(=O)[C@H](C)NC(=O)C(C)(C)NC(=O)[C@H](Cc2c[nH]c3ncccc23)NC(=O)[C@H]([C@@H](C)O)NC(=O)[C@@H]2CCCN2C(=O)[C@H](Cc2c[nH]c3ccc(F)cc23)NC(=O)[C@H](C(C)(C)C)NC1=O [Compound 042] (Ac-C[Tle][Trp(5-F)]PT[Trp(7-aza)][Aib]AY[αMeV][aThr][dC]-NH2; linker 1-12 via mXylylene) |  | 0.001 to 0.1 µM | 0.001 to 0.1 µM
CCC[C@@H]1NC(=O)[C@H](Cc2ccc(O)cc2)NC(=O)[C@H](C)NC(=O)[C@]2(C)CC/C=C\CCCC[C@](C)(NC1=O)C(=O)N[C@H](C(N)=O)CCCCNC(=O)CCC[C@H](NC(C)=O)C(=O)N[C@@H](C(C)(C)C)C(=O)N[C@@H](Cc1ccc(O)cc1)C(=O)N1CCC[C@H]1C(=O)N[C@@H]([C@@H](C)O)C(=O)N[C@@H](Cc1c[nH]c3ncccc13)C(=O)N2 [Compound 104] (Ac-[Aad][Tle]YPT[Trp(7-aza)][αMeNva(5-ylidene)]AY[Nva][X1]K-NH2; lactam 1-12; staple (Z) 7-11) | 1 to 12.1 µM | 0.1 to 1 µM | 
CCC[C@@H]1NC(=O)[C@H](Cc2c[nH]c3ncccc23)NC(=O)[C@H]([C@@H](C)O)NC(=O)[C@@H]2CCCCNC(=O)CC[C@H](NC1=O)C(=O)N[C@@H](Cc1ccc(O)cc1)C(=O)N[C@@H](C1CCCCC1)C(=O)N[C@@H]([C@@H](C)O)C(=O)N[C@@H](C(N)=O)CSCc1cccc(c1)CSCCC(=O)N[C@@H](C(C)(C)C)C(=O)N[C@@H](Cc1ccc(O)cc1)C(=O)N2 [Compound 107] ([Mpa][Tle]YKT[Trp(7-aza)][Nva]EY[Chg]T[dC]-NH2; linker 1-12 via mXylylene; lactam 4-8) | 0.001 to 0.1 µM | 0.001 to 0.1 µM | 
CCC[C@@H]1NC(=O)[C@H](Cc2ccc(O)cc2)NC(=O)[C@@H]2CCC(=O)NCCCC[C@H](NC(=O)[C@H](Cc3ccc(O)cc3)NC(=O)[C@H](C(C)(C)C)NC(=O)CCSCc3cccc(c3)CSC[C@@H](C(N)=O)NC(=O)[C@H]([C@@H](C)O)NC1=O)C(=O)N[C@@H]([C@@H](C)O)C(=O)N[C@@H](Cc1c[nH]c3ncccc13)C(=O)NC(C)(C)C(=O)N2 [Compound 110] ([Mpa][Tle]YKT[Trp(7-aza)][Aib]EY[Nva]TC-NH2; linker 1-12 via mXylylene; lactam 4-8) | 0.001 to 0.1 µM | 0.001 to 0.1 µM | 

Other lines, results leading:

IC50 [1] | IC50 [2] | IC50 [3] | SMILES
0.001 to 0.1 µM | 0.001 to 0.1 µM | 0.001 to 0.1 µM | CC(C)[C@]1(C)NC(=O)[C@H](Cc2ccc(O)cc2)NC(=O)[C@H](C)NC(=O)C(C)(C)NC(=O)[C@H](Cc2c[nH]c3ncccc23)NC(=O)[C@H]([C@@H](C)O)NC(=O)[C@@H]2CCCN2C(=O)[C@H](Cc2ccc(O)cc2)NC(=O)[C@H](C(C)(C)C)NC(=O)CCSCc2cccc(c2)CSC[C@@H](C(N)=O)NC(=O)[C@H]([C@@H](C)OP(=O)(O)O)NC1=O [Compound 015] ([Mpa][Tle]YPT[Trp(7-aza)][Aib]AY[αMeV][pT]C-NH2; linker 1-12 via mXylylene)
 | 0.001 to 0.1 µM | 0.001 to 0.1 µM | CC(=O)N[C@H]1CSCc2cccc(c2)CSC[C@H](C(N)=O)NC(=O)[C@H]([C@@H](C)O)NC(=O)[C@](C)(C(C)C)NC(=O)[C@H](Cc2ccc(O)cc2)NC(=O)[C@H](C)NC(=O)[C@](C)(CO)NC(=O)[C@H](Cc2c[nH]c3ncccc23)NC(=O)[C@H]([C@@H](C)O)NC(=O)[C@@H]2CCCN2C(=O)[C@H](Cc2ccc(O)cc2)NC(=O)[C@H](C(C)(C)C)NC1=O [Compound 031] (Ac-C[Tle]YPT[Trp(7-aza)][αMeS]AY[αMeV]T[dC]-NH2; linker 1-12 via mXylylene)
 | 0.001 to 0.1 µM | 0.001 to 0.1 µM | CC(C)[C@](C)(NC(=O)[C@H](Cc1ccc(O)cc1)NC(=O)[C@H](C)NC(=O)C(C)(C)NC(=O)[C@H](Cc1c[nH]c2ncccc12)NC(=O)[C@@H](NC(=O)[C@@H]1CCCN1C(=O)[C@@H]1Cc2ccc(O)c(c2)CCCC[C@H](N)C(=O)N[C@@H](C(C)(C)C)C(=O)N1)[C@@H](C)O)C(N)=O [Compound 032]
 | 0.001 to 0.1 µM | 0.001 to 0.1 µM | CC(=O)N[C@H]1CSCc2cccc(c2)CSC[C@H](C(N)=O)NC(=O)[C@H]([C@@H](C)O)NC(=O)[C@](C)(C(C)C)NC(=O)[C@H](Cc2ccc(O)cc2)NC(=O)[C@H](C)NC(=O)C2(CCNCC2)NC(=O)[C@H](Cc2c[nH]c3ncccc23)NC(=O)[C@H]([C@@H](C)O)NC(=O)[C@@H]2CCCN2C(=O)[C@H](Cc2ccc(O)cc2)NC(=O)[C@H](C(C)(C)C)NC1=O [Compound 034] (Ac-C[Tle]YPT[Trp(7-aza)][Api]AY[αMeV]T[dC]-NH2; linker 1-12 via mXylylene)
 | 0.1 to 1 µM | 0.1 to 0.5 µM | COCC1(C)NC(=O)[C@H](Cc2c[nH]c3ncccc23)NC(=O)[C@H]([C@@H](C)O)NC(=O)[C@@H]2CCCN2C(=O)[C@H](Cc2ccc(O)cc2)NC(=O)[C@H](C(C)(C)C)NC(=O)[C@@H](NC(C)=O)CSCc2cccc(c2)CSC[C@H](C(N)=O)NC(=O)[C@H]([C@@H](C)O)NC(=O)[C@](C)(C(C)C)NC(=O)[C@H](Cc2ccc(O)cc2)NC(=O)[C@H](C)NC1=O (stereo partly drawn) [Compound 035] (Ac-C[Tle]YPT[Trp(7-aza)][ξαMeS](Me)AY[αMeV]T[dC]-NH2; linker 1-12 via mXylylene)
 | 0.001 to 0.1 µM | 0.001 to 0.1 µM | CC(=O)N[C@H]1CSCc2cccc(c2)CSC[C@H](C(N)=O)NC(=O)[C@H]([C@H](C)O)NC(=O)[C@](C)(C(C)C)NC(=O)[C@H](Cc2ccc(O)cc2)NC(=O)[C@H](C)NC(=O)C(C)(C)NC(=O)[C@H](Cc2c[nH]c3ncccc23)NC(=O)[C@H]([C@@H](C)O)NC(=O)[C@@H]2CCCN2C(=O)[C@H](Cc2ccccc2)NC(=O)[C@H](C(C)(C)C)NC1=O [Compound 040] (Ac-C[Tle]FPT[Trp(7-aza)][Aib]AY[αMeV][aThr][dC]-NH2; linker 1-12 via mXylylene)
 | 21 to 50 µM | 0.5 to 5 µM | CC(=O)N[C@H]1CSCc2cccc(c2)CSC[C@H](C(N)=O)NC(=O)[C@H]([C@H](C)O)NC(=O)[C@](C)(C(C)C)NC(=O)[C@H](Cc2ccc(O)cc2)NC(=O)[C@H](C)NC(=O)C(C)(C)NC(=O)[C@H](Cc2c[nH]c3ncccc23)NC(=O)[C@H]([C@@H](C)O)NC(=O)[C@@H]2CCCN2C(=O)[C@H](Cc2cccc(C(F)(F)F)c2)NC(=O)[C@H](C(C)(C)C)NC1=O [Compound 041] (Ac-C[Tle][Phe(3-CF3)]PT[Trp(7-aza)][Aib]AY[αMeV][aThr][dC]-NH2; linker 1-12 via mXylylene)
